Earlier results, collected in patent US20080139483A1, “DRUG COMBINATION FOR HYPERTENSIVE DISORDERS” (priority 2006, published 2008).

Columns and labels:
[1] = system: patients with PAH; conditions: does not appear to be dose related
[2] = system: p450

drug interactions (p450 induction or inhibition) [2]: no p450 induction or inhibition
SMILES: COC(c1ccccc1)(c1ccccc1)[C@H](Oc1nc(C)cc(C)n1)C(=O)O [ambrisentan]
potential liver toxicity [1]: low incidence and severity of potential liver toxicity
